Results on 79 compounds are retold here after the METLIN SMRT retention time set (Domingo-Almenara et al. 2019).

The structures appear in SMILES notation.

A short description of this series: gradient 5% acetonitrile 3 min, to 50% in 2 min, to 85% in 15 min, held 3 min, 100 µL/min. Particulars: column: Zorbax Extend-C18 2.1 x 50 mm; eluents: water / acetonitrile, 0.1% formic acid. The method, boiled down: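 Retention times come from adduct peaks that were picked computationally and then checked by hand. The standards, pure and pooled in mixtures of ~100 molecules, were run on a Zorbax Extend-C18 column (2.1 × 50 mm, 1.8 μm) at 100 μL/min with water and acetonitrile, each with 0.1% formic acid. Detection was by quadrupole time-of-flight mass spectrometry in positive and negative ionization mode, with a dead volume of 40 μL and a dwell volume of 900 μL.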
Consider `CCOc1ccccc1NC(=O)CNC(=O)c1c[nH]c2ccccc12`, for which the RP-LC retention time was found to be 729 s.

As to `CCc1cccc(NC(=O)c2csc(-c3cn(C)c4ncccc34)n2)c1`, the RP-LC retention time was 1120 s.

`O=c1c2sccc2n(Cc2nc(-c3ccc(Br)cc3)no2)c(=O)n1-c1cccc(F)c1` gave an RP-LC retention time of 1070 s.

For `O=C(Nc1ccccc1Br)c1n[nH]nc1Nc1ccccc1`, the RP-LC retention time stood at 1100 s.

Consider `CCC(=O)n1nc(C)c(S(=O)(=O)N2CCOCC2)c1C`, for which the RP-LC retention time came to 848 s.

In turn, `CC1CC(=O)NN=C1c1ccc(N)c([N+](=O)[O-])c1` (centres undefined) came in with an RP-LC retention time of 612 s.

Regarding `Cc1sc(-c2noc(C3CC3)n2)cc1S(=O)(=O)N1CCC(C(=O)NC2CCC(C)CC2)CC1` (centres undefined), the RP-LC retention time came out at 1120 s.

The compound `CCC(C(=O)NCCc1c[nH]c2ccccc12)n1nc(C)c2nn(-c3ccccc3)c(C)c2c1=O` (centres undefined) yielded an RP-LC retention time of 932 s.

Turning to `CCN(CC)S(=O)(=O)c1cccc(-c2cn3cc(C)ccc3n2)c1`, the RP-LC retention time was found to be 598 s.

Compound `COc1ccc2c(c1)C(OC(C)C)=C(C(N)=O)S2=O` (centres undefined) yielded an RP-LC retention time of 623 s.

As for `CCn1cc(SCC(=O)Nc2c(C)cc(C)cc2C)c2ccccc21`, the RP-LC retention time turned out to be 998 s.

`O=C(NCC(O)c1ccc(C(F)(F)F)cc1)C(c1ccccc1)c1ccccc1` (centres undefined) came in with an RP-LC retention time of 938 s.

As to `CCOC(=O)C1=C(C)NC2=C(C(=O)CCC2)C1c1ccc(OC)c(OC)c1OC` (centres undefined), the RP-LC retention time is 727 s.

Consider `CCN1CCN(C(=O)CN2C(=O)C3CCCCN3c3ccc(C(=O)N4CCCCC4)cc32)CC1` (centres undefined), for which the RP-LC retention time worked out at 632 s.

The compound `CS(=O)(=O)N(Cc1ccncc1)C1CN(C(=O)c2ccc3ncccc3c2)C1` gave an RP-LC retention time of 698 s.

In turn, `CCOc1ccccc1-n1ccn(Cc2nc(-c3ccc(C(C)(C)C)cc3)no2)c(=O)c1=O` returned an RP-LC retention time of 699 s.

For `O=C(NC1CCCCC1)C1CCCN(C(=O)c2ccc(F)c(F)c2)C1` (centres undefined), the RP-LC retention time worked out at 825 s.

For the compound `CCOc1cccc(-c2noc(-c3nnn4c3COC(c3ccc(C)cc3C)C4)n2)c1` (centres undefined), the RP-LC retention time is 643 s.

Compound `Cc1oc(-c2[nH]ncc2C(=O)N2CCCC2)cc1S(=O)(=O)NCc1ccco1` yielded an RP-LC retention time of 651 s.

For `Cc1cc2ncn(Cc3ccccc3F)c2cc1C`, the RP-LC retention time came to 582 s.

Turning to `CC(=O)Nc1ccc2c(c1)CN(C(=O)c1cccc(Cl)c1)C(C(=O)N1CCCC1)C2` (centres undefined), the RP-LC retention time turned out to be 690 s.

Turning to `CCCCCNC(=O)C1CCCN(c2ncc(-c3ccc(F)cc3)cn2)C1` (centres undefined), the RP-LC retention time stood at 1060 s.

`COc1ccc(C(=O)N2CCN(S(=O)(=O)c3cc4c5c(c3)CCC(=O)N5CCC4)CC2)cc1` showed an RP-LC retention time of 779 s.

Take `CCCN(C)S(=O)(=O)c1cc(-c2nnc(C(C)C)o2)co1`: the RP-LC retention time is 872 s.

As for `O=C(Nc1ccc(F)cc1)N1CCC(n2c(-c3ccco3)nc3cccnc32)C1` (centres undefined), the RP-LC retention time was determined as 749 s.

The compound `Cc1noc(C)c1S(=O)(=O)N1CC(N(Cc2cccnc2)CC(C)C)C1` displayed an RP-LC retention time of 706 s.

In the case of `CCN1c2cc(C(=O)Nc3ccc4c(c3)OCCO4)ccc2C(=O)N2CCCCC21` (centres undefined), the RP-LC retention time worked out at 821 s.

On to `O=C(NC1CCCCC1)C1CCCN(c2cnc3nccnc3c2)C1` (centres undefined), for which the RP-LC retention time was determined as 691 s.

As to `CC(C)n1cnc(S(=O)(=O)N2CCCC(C(=O)Nc3ccccc3F)C2)c1` (centres undefined), the RP-LC retention time came out at 772 s.

In turn, `O=C(CN1CCN(C(=O)c2cc3cn(C4CCCC4)cc3s2)CC1)N1CCCC1` displayed an RP-LC retention time of 1150 s.

The compound `Cc1ccc(NC(=O)N2CCC(C(C)C(=O)Nc3cc(F)ccc3F)CC2)cc1` (centres undefined) yielded an RP-LC retention time of 653 s.

The compound `O=C(CSc1nc2ccccc2s1)N1CCN(C(=O)C2CC2c2ccccc2)CC1` (centres undefined) registered an RP-LC retention time of 867 s.

`CCCN1C(=O)c2c(C(=O)NCCc3cccc(C)c3)ncn2CC1(C)C(=O)NC1CCCC1` (centres undefined) showed an RP-LC retention time of 918 s.

As to `CCn1c(=O)c2ccn(CC(=O)N3CCN(c4ccc(Cl)cc4)CC3)c2n(CC)c1=O`, the RP-LC retention time was determined as 787 s.

Consider `COc1ccc(-c2c(C)noc2NC(C)=O)cc1S(=O)(=O)N1CC=C(c2ccccc2)CC1`, for which the RP-LC retention time was found to be 879 s.

The compound `CC(C)NC(=O)c1ccc(OCC2CCCN2C(=O)c2ccc(C(F)(F)F)cc2)cc1` (centres undefined) yielded an RP-LC retention time of 914 s.

On to `Cc1ccc(-n2nnnc2CNS(=O)(=O)c2ccc(F)cc2F)cc1`, for which the RP-LC retention time was 792 s.

As for `Cc1nn(C)c(C)c1CCN(C)c1nc(C2CC2)nc2c1CCC2`, the RP-LC retention time amounted to 604 s.

Consider `CCN1CCN(C(=O)Cc2c(C(=O)O)c(C)cn2CC)CC1`, for which the RP-LC retention time stood at 568 s.

Compound `COc1ccccc1NC(=O)c1cnc(-c2ccccc2)nc1-c1ccncc1` displayed an RP-LC retention time of 887 s.

As to `Cc1c(-c2noc(-c3cccc(F)c3)n2)nnn1-c1ccc(F)cc1`, the RP-LC retention time was 1100 s.

Consider `O=C(CSc1nc2ncccc2[nH]1)Nc1ccc(Br)cc1F`, for which the RP-LC retention time came to 720 s.

Regarding `C=CCNC(=O)c1ccc2nc(C)c(C)nc2c1`, the RP-LC retention time is 626 s.

`COc1ccc(CNC(=O)c2csc(-c3cn(C)c4ncccc34)n2)cc1` returned an RP-LC retention time of 867 s.

Consider `COc1ccc(C(=O)N(CN2CCCC2=O)c2nccs2)cc1OC`, for which the RP-LC retention time is 647 s.

As to `CCC(CO)Nc1nc(NCc2ccccc2)c2ncn(C(C)C)c2n1` (centres undefined), the RP-LC retention time was 630 s.

With `COCCn1nc2n(c1=O)CCN(C(=O)c1ccc(Br)o1)CC2`, the RP-LC retention time came to 636 s.

The compound `CC(=O)N1CCc2cc(C)c(S(=O)(=O)NC3CC3)cc21` gave an RP-LC retention time of 709 s.

As for `CN(C)C(=O)c1csc(S(=O)(=O)N2CCC(C(=O)NC3CCCCC3)CC2)c1`, the RP-LC retention time came to 720 s.

Consider `COc1ccc(-c2noc(CCCC(=O)Nc3nc(-c4ccccc4)cs3)n2)cc1OC`, for which the RP-LC retention time came to 982 s.

`CCN1C(=O)C(CC(=O)NCC2CCCCC2)Sc2ncccc21` (centres undefined) had an RP-LC retention time of 808 s.

Compound `CNC(=O)c1ccc(-c2nc3cc(NS(=O)(=O)c4cc(F)ccc4F)ccc3n2C)cc1` returned an RP-LC retention time of 637 s.

`Cc1ccc(NC(=O)N2CCC(n3cnc4c(Cl)cccc4c3=O)CC2)cc1C` displayed an RP-LC retention time of 877 s.

For the compound `CCCS(=O)(=O)N1CCOc2ccc(CN3CCc4ccccc4C3)cc2C1`, the RP-LC retention time came to 596 s.

As to `COCc1nc(NCc2ccc(OC)c(OC)c2)ncc1C(=O)O`, the RP-LC retention time was determined as 644 s.

The compound `CCn1ccc2cc(S(=O)(=O)N3CCCN(C(=O)NC4CCCCC4)CC3)ccc21` came in with an RP-LC retention time of 936 s.

As for `CCOc1ccc(CCNC(=O)c2c(C)oc3c2C2=NCCN2C=N3)cc1OCC`, the RP-LC retention time is 651 s.

The compound `COc1cccc(NC(=O)C2CCN(S(C)(=O)=O)c3cc(Cl)ccc3O2)c1` (centres undefined) returned an RP-LC retention time of 966 s.

`COCCn1cc(C(=O)NC2CCCC2)c2nn(-c3ccccc3)c(=O)c-2c1` showed an RP-LC retention time of 843 s.

`CSc1cccc(NC(=O)C2CCN(C(=O)c3cc(-c4ccncc4)n[nH]3)CC2)c1` came in with an RP-LC retention time of 637 s.

Regarding `COc1cccc(/C=C/c2nc(C#N)c(NCCCN(C)C)o2)c1`, the RP-LC retention time is 651 s.

Compound `CCCN(C)c1nccn2c(=O)n(CC(=O)Nc3ccc(C)cc3Br)nc12` showed an RP-LC retention time of 743 s.

In turn, `CCCNC(=O)C1CCN(c2ccc(SCC(=O)Nc3ccc(C(=O)OC)cc3)nn2)CC1` showed an RP-LC retention time of 638 s.

On to `O=C1[C@H]2CN(Cc3cc(Cl)ccc3F)C[C@H]2C(=O)N1CCc1ccccc1`, for which the RP-LC retention time amounted to 840 s.

`Cc1ccc(-c2nc(-c3ccc(S(=O)(=O)N4CCC(C(=O)N5CCCC5)CC4)cc3)no2)cc1` had an RP-LC retention time of 1090 s.

As for `CCOc1ccccc1NC(=O)Cn1cnc2c(sc3nc(-c4ccccc4)ccc32)c1=O`, the RP-LC retention time amounted to 1110 s.

Turning to `Cn1c(C(=O)Nc2ccc(N3CCOCC3)cc2)cc2c1CCN(Cc1ccccc1)C2`, the RP-LC retention time came out at 618 s.

In turn, `CC(C)(C)C(O)CCNC(=O)C(=O)NCc1ccccc1` (centres undefined) displayed an RP-LC retention time of 740 s.

`Cc1cccc(Cn2nnc(C(=O)O)c2-c2cccnc2)c1` gave an RP-LC retention time of 669 s.

`CCOC(=O)Cc1csc(NC(=O)Cn2nc3c(cc2=O)CCCCC3)n1` came in with an RP-LC retention time of 769 s.

`O=C(NCC(=O)N1CCCc2ccccc21)c1cccc2[nH]ccc12` registered an RP-LC retention time of 773 s.

On to `CCC(Sc1nnc2c3ccccc3n(C(C)C)c2n1)C(=O)Nc1nc(-c2ccccc2)cs1` (centres undefined), for which the RP-LC retention time worked out at 1310 s.

Compound `CC(=O)NCc1ccc(-c2noc(/C=C/c3cccc(Cl)c3)n2)s1` came in with an RP-LC retention time of 903 s.

`CC(=O)N1CCc2cc(N3CC(C(=O)NC4CCCCCC4)CC3=O)ccc21` (centres undefined) showed an RP-LC retention time of 723 s.

As to `COc1ccc(OC)c(NC(=O)Nc2cc(F)c3nc(N4CCOCC4)ccc3c2)c1`, the RP-LC retention time worked out at 863 s.

Take `CCOC(=O)C1=C(CN2CCN(C(C)CC)CC2)NC(=O)NC1c1ccc(OC(C)C)cc1` (centres undefined): the RP-LC retention time was 668 s.

The compound `Cc1ccccc1NC(=O)Cn1c(=O)n(-c2ccc(F)cc2)c2ncccc21` gave an RP-LC retention time of 814 s.

In the case of `Cc1ccc(OCC(=O)Nc2cc3c(cc2N2CCCC2)n(C)c(=O)c(=O)n3C)c(C)c1`, the RP-LC retention time came out at 1000 s.

Consider `CCCC(C)NC(=O)CN1c2ccc(F)cc2-c2ccccc2S1(=O)=O` (centres undefined), for which the RP-LC retention time is 950 s.
